Results on six compounds are retold here after ChEMBL document CHEMBL5291721, “A preclinical secondary pharmacology resource illuminates target-adverse drug reaction associations of marketed drugs” (Nat Commun, 2023).

The target of experiment [1] is Growth hormone secretagogue receptor type 1 (Homo sapiens, UniProt Q92847).
The target in experiment [2] is T1, 5-hydroxytryptamine receptor 2C (Homo sapiens, UniProt P28335).
T1 sequence (P28335 whole entry): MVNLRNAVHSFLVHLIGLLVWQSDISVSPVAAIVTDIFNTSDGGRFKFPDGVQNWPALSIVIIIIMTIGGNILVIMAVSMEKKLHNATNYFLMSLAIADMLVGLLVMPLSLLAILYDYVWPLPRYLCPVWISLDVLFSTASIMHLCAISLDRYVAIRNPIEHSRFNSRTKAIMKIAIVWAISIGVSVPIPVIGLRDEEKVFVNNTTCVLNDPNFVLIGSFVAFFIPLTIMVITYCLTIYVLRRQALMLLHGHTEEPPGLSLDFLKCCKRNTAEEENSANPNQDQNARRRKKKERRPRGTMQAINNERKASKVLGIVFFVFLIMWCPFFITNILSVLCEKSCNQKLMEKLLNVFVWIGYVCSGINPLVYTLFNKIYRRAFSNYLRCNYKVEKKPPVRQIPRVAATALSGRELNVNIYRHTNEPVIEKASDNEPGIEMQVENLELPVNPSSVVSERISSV

Experiment [3] addresses 5-hydroxytryptamine receptor 2A (Homo sapiens, UniProt P28223). Format: functional, cell-based.
Experiment [4] addresses Glutamate receptor ionotropic, NMDA 1 (Rattus norvegicus, UniProt P35439).
Experiment [5] concerns the target T2, Muscarinic acetylcholine receptor M1 (Homo sapiens, UniProt P11229).
T2 sequence (P11229 whole entry): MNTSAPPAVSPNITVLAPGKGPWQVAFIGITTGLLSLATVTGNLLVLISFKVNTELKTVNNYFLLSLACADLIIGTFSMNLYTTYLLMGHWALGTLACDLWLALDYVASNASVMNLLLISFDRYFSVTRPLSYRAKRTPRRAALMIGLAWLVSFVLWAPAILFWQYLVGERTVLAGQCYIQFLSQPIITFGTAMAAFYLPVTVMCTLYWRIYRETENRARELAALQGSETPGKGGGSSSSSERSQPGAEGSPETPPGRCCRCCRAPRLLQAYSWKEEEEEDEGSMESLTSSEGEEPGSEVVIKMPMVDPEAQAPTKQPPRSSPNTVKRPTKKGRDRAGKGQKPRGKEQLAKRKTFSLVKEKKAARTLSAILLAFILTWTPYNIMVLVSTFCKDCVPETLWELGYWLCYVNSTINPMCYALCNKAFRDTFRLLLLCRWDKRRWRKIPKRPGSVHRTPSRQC
Format: functional.

Experiment [6] addresses T3, Neuropeptide Y receptor type 1 (Homo sapiens, UniProt P25929).
T3 sequence (P25929 whole entry): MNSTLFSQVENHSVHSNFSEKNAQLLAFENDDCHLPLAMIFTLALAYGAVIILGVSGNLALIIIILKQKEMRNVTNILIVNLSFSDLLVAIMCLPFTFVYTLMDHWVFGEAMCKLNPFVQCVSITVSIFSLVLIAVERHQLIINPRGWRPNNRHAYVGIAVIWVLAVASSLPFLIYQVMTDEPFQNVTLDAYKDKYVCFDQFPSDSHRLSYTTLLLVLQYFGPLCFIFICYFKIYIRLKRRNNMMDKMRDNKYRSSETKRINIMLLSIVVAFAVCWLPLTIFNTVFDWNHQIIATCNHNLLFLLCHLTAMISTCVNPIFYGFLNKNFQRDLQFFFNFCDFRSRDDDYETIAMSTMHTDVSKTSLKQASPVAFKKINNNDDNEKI

Experiment [7] has as its target Motilin receptor (Homo sapiens, UniProt O43193).
The target in experiment [8] is Sodium-dependent serotonin transporter (Homo sapiens, UniProt P31645).
Experiment [9] addresses Adenosine receptor A2a (Homo sapiens, UniProt P29274).
Experiment [10] deals with T4, Gamma-aminobutyric acid receptor subunit alpha-1 (Rattus norvegicus, UniProt P62813). The format is functional.
T4 sequence (P62813 whole entry): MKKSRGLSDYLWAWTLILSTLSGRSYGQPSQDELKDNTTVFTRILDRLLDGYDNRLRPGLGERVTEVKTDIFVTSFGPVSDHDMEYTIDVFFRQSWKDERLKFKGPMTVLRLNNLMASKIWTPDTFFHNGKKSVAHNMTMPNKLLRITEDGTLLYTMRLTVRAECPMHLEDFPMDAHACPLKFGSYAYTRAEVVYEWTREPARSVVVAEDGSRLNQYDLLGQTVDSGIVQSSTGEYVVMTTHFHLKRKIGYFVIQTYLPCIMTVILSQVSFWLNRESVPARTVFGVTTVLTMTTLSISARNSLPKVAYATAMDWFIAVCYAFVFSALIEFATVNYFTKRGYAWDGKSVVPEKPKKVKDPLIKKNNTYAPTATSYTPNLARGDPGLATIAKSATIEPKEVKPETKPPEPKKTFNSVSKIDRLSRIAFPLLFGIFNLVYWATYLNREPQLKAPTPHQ
The target of experiment [11] is T5, Alpha-2A adrenergic receptor (Homo sapiens, UniProt P08913).
T5 sequence (P08913 whole entry): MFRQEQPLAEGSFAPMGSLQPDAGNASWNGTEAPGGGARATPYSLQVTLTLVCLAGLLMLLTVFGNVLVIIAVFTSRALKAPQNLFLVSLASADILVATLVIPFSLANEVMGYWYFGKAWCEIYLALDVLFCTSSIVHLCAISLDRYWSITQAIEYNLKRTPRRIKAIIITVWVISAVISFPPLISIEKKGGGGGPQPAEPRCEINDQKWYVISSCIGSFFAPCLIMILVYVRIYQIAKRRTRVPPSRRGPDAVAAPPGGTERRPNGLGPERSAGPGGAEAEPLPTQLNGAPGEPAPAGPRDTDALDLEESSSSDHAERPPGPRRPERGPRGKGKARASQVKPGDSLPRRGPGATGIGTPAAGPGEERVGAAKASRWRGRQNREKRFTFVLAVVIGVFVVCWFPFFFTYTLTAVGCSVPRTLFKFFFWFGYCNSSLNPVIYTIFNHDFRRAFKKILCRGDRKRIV
Format: functional, cell-based.

Experiment [12] addresses Sodium-dependent noradrenaline transporter (Homo sapiens, UniProt P23975).
Experiment [13] addresses Beta-2 adrenergic receptor (Homo sapiens, UniProt P07550).
Experiment [14] has as its target T4, Gamma-aminobutyric acid receptor subunit alpha-1.
Experiment [15] deals with Histamine H2 receptor (Homo sapiens, UniProt P25021). The format is functional, cell-based.
For experiment [16], the target named is Beta-1 adrenergic receptor (Homo sapiens, UniProt P08588). The format is functional.
The target in experiment [17] is Sodium-dependent dopamine transporter (Homo sapiens, UniProt Q01959).
For experiment [18], the target named is Cannabinoid receptor 1 (Homo sapiens, UniProt P21554). The format is functional, cell-based.
Cannabinoid receptor 1, sequence (P21554 whole entry): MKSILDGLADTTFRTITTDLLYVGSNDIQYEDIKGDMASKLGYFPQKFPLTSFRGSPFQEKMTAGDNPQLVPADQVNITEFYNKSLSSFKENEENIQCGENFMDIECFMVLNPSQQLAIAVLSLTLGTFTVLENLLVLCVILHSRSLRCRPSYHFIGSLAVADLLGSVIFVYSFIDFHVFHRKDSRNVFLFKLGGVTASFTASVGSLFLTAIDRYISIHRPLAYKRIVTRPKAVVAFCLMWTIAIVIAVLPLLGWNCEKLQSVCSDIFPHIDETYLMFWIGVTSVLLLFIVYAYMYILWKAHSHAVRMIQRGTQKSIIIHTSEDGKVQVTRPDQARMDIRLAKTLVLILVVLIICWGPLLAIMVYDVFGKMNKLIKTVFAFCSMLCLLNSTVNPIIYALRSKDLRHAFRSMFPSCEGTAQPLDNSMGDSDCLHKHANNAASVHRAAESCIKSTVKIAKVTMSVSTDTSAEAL
The target of experiment [19] is Histamine H3 receptor (Homo sapiens, UniProt Q9Y5N1).
Histamine H3 receptor, sequence (Q9Y5N1 whole entry): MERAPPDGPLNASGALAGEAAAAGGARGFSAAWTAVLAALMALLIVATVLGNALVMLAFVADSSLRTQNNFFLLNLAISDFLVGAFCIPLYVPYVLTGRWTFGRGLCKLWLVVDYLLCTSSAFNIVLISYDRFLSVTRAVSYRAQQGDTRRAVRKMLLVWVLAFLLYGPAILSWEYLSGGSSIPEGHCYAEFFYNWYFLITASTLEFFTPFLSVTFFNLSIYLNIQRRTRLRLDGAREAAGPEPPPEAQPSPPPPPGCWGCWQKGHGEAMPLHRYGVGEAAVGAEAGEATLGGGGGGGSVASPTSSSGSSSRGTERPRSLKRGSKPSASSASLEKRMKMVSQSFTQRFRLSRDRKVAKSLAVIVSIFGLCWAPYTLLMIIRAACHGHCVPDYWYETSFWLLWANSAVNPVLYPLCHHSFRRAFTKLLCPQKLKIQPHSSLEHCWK
In experiment [20] the target is 5-hydroxytryptamine receptor 2B (Homo sapiens, UniProt P41595). Format: functional, cell-based.
5-hydroxytryptamine receptor 2B, sequence (P41595 whole entry): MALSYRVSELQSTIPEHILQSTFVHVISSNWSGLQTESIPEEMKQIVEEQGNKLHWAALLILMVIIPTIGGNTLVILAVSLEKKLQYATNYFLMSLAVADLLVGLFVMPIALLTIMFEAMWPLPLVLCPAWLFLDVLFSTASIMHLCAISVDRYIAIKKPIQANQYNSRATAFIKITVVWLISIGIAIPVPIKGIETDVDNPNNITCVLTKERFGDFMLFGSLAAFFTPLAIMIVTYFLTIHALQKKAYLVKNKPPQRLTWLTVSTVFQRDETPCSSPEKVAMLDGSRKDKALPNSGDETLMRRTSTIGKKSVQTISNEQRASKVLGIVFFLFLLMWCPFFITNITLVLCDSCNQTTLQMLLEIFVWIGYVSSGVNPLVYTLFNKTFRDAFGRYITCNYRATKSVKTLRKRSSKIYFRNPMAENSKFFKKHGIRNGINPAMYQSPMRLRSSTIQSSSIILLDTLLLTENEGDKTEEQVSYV
Experiment [21] deals with cGMP-inhibited 3',5'-cyclic phosphodiesterase 3A (Homo sapiens, UniProt Q14432). The format is functional.
cGMP-inhibited 3',5'-cyclic phosphodiesterase 3A, sequence (Q14432 whole entry): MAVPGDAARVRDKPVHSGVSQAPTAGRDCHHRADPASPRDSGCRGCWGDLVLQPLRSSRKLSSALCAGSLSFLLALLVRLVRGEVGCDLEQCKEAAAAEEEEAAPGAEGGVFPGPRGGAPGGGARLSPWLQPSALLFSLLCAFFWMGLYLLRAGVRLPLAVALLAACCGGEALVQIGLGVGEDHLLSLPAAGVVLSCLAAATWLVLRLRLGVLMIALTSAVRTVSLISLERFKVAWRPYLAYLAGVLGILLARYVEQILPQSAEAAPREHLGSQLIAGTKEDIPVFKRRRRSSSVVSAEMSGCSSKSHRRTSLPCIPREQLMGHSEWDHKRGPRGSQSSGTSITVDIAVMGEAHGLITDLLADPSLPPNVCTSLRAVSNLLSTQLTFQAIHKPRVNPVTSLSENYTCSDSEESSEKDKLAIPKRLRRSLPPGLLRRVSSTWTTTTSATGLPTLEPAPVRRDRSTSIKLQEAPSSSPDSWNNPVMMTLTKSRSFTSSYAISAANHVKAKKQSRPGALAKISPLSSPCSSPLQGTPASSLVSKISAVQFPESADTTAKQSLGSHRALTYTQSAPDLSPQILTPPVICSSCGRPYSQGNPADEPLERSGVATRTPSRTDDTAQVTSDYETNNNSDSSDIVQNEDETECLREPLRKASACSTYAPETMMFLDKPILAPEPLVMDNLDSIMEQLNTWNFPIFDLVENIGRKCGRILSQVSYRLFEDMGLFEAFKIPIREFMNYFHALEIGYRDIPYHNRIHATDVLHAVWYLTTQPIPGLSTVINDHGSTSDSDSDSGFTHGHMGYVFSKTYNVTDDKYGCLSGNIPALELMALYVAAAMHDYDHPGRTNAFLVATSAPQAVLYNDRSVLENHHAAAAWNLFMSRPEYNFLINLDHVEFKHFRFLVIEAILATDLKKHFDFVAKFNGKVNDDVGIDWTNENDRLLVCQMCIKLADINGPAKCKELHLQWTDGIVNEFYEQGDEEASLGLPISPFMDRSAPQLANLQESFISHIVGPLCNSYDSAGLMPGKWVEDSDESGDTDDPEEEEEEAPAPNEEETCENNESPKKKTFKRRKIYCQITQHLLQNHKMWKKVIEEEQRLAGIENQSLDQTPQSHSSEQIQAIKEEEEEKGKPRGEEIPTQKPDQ
Also: assay procedure not described here.

Beta-2 adrenergic receptor, sequence (P07550 whole entry): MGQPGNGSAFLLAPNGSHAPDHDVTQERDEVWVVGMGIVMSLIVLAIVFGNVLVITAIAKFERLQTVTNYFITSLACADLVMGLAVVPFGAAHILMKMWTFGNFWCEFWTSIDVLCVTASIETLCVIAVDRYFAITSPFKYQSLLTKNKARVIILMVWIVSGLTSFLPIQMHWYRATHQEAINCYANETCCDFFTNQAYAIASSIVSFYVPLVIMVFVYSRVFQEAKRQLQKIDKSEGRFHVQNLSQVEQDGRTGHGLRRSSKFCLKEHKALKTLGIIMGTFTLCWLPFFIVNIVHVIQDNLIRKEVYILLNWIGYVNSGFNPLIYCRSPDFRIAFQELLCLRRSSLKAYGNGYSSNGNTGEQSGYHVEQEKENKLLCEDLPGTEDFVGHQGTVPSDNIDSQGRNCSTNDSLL
Motilin receptor, sequence (O43193 whole entry): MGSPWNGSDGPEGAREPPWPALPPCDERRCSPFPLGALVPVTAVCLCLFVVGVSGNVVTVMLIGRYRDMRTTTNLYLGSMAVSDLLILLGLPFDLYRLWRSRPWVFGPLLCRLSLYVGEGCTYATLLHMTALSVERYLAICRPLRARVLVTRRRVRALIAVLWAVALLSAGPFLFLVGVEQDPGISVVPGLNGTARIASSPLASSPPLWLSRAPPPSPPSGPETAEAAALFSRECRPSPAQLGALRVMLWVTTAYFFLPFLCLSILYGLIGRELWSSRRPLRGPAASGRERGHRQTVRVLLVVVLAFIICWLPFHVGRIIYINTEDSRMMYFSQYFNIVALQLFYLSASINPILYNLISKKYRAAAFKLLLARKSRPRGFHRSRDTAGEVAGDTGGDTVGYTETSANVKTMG
Sodium-dependent noradrenaline transporter, sequence (P23975 whole entry): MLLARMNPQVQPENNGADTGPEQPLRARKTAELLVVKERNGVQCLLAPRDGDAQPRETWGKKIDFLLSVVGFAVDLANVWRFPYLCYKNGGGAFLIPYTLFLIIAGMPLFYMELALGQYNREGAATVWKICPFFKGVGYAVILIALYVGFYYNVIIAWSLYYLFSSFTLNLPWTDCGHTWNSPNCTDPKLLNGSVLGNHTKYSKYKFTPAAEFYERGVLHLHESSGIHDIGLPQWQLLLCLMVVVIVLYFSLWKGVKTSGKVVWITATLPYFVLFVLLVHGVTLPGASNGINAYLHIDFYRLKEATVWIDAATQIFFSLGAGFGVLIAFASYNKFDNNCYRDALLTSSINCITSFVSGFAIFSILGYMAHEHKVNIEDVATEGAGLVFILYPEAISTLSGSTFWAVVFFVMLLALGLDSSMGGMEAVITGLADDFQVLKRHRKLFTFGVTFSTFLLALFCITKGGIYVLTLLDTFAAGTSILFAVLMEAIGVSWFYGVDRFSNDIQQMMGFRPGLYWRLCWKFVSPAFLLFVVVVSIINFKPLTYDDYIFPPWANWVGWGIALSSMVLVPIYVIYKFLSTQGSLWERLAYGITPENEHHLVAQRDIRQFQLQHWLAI
5-hydroxytryptamine receptor 2A, sequence (P28223 whole entry): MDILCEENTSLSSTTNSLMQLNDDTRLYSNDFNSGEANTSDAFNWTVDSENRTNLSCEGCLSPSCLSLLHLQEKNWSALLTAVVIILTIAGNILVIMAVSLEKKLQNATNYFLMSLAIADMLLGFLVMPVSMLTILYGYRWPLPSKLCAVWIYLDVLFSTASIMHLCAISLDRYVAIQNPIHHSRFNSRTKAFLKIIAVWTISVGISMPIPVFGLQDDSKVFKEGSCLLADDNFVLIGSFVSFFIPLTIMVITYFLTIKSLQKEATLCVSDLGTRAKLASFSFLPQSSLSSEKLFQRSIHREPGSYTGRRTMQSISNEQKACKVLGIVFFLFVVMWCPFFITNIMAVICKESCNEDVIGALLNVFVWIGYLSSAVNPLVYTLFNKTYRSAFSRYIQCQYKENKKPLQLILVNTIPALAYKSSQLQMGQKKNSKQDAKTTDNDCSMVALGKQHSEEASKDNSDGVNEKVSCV

For `C1=Cc2cccc(OCC3CNCCO3)c2C1` (stereo unspecified) [INDELOXAZINE], the concentration at half-maximal activity (AC50) in [1] was above 30 µM; in experiment [2], above 10 µM; in experiment [3], 17 µM; in experiment [4], above 30 µM; in [5], above 30 µM; in experiment [6], above 30 µM. The AC50 is above 30 µM in experiment [7]; 0.047 µM in experiment [8]; above 30 µM in [9]; above 30 µM in experiment [10]; above 30 µM in experiment [11]; 0.7 µM in experiment [12]. For the same compound, the AC50 in [13] was above 30 µM; in experiment [14] it was above 30 µM; in experiment [15], above 30 µM; in experiment [16], above 30 µM; in experiment [17], 12 µM; in experiment [18] it was above 30 µM. The AC50 is above 30 µM in experiment [19], 5.3 µM in experiment [20] and above 30 µM in experiment [21].
For `CN(C)C(=O)OC1N=C(c2ccccc2)c2cc(Cl)ccc2N(C)C1=O` (stereo unspecified) [CAMAZEPAM], the AC50 in experiment [1] is above 30 µM; in experiment [2], above 30 µM; in [3], above 30 µM; in [4], above 10 µM; in experiment [5], above 10 µM; in experiment [6] it was above 30 µM. Also, the AC50 in experiment [7] is above 10 µM; in experiment [8], above 10 µM; in experiment [9] it was above 30 µM; in [10] it was 0.96 µM; in [11], above 10 µM; in experiment [12] it was above 10 µM. The AC50 is above 10 µM in experiment [13]; above 10 µM in experiment [14]; above 10 µM in experiment [15]; above 10 µM in experiment [16]; above 10 µM in experiment [17]; above 30 µM in experiment [18]. Also, the AC50 in experiment [19] is above 10 µM; in [20] it was 18 µM; in experiment [21], above 30 µM.
With `Cc1cc(-c2ccccc2)nnc1NCCN1CCOCC1` [MINAPRINE], the AC50 in [1] is above 30 µM; in [2], above 30 µM; in experiment [3], above 30 µM; in [4] it was above 10 µM; in experiment [5] it was above 10 µM; in [6], above 30 µM. For the same compound, the half-maximal activity concentration (AC50) was above 10 µM in experiment [7]; above 10 µM in [8]; above 30 µM in experiment [9]; above 10 µM in experiment [10]; above 10 µM in experiment [11]; above 10 µM in [12]. For the same compound, the AC50 in [13] was above 10 µM; in experiment [14], above 10 µM; in [15] it was above 10 µM; in experiment [16], above 10 µM; in experiment [17], above 10 µM; in experiment [18], above 30 µM. The values for the AC50 in [19], in experiment [20] and in experiment [21] were above 10 µM, 5.4 µM and above 30 µM, respectively.
On to `C1COC(NC(C2CC2)C2CC2)=N1` [RILMENIDINE], for which the AC50 in experiment [1] is above 30 µM; in experiment [2] it was above 30 µM; in [3], above 30 µM; in [4], above 10 µM; in [5] it was above 10 µM; in experiment [6], above 30 µM. Also, the AC50 was above 10 µM in experiment [7]; above 30 µM in experiment [8]; above 30 µM in [9]; above 10 µM in experiment [10]; 2.6 µM in experiment [11]; above 30 µM in [12]. The AC50 in [13] is above 10 µM; in [14], above 10 µM; in [15], above 10 µM; in experiment [16] it was above 10 µM; in experiment [17], above 30 µM; in experiment [18], above 30 µM. In addition, the values for the AC50 in experiment [19], in experiment [20] and in experiment [21] were above 10 µM, above 10 µM and above 30 µM, respectively.
Take `CCC(C(=O)O)c1ccc(CC(C)C)cc1` (stereo unspecified) [BUTIBUFEN]: the concentration at half-maximal activity (AC50) in experiment [1], in experiment [2], in [3], in experiment [4], in [5] and in experiment [6] was above 30 µM each time. In addition, the AC50 in experiment [7], in experiment [8], in experiment [9], in experiment [10], in experiment [11] and in [12] was above 30 µM throughout. Further, the AC50 in experiment [13], in [14], in [15], in [16], in experiment [17] and in experiment [18] was above 30 µM throughout. Further, the AC50 in experiment [19], in experiment [20] and in experiment [21] was above 30 µM in each case.
Regarding `CCCCCN(C)CCC(O)(P(=O)(O)O)P(=O)(O)O` [IBANDRONIC ACID], the AC50 in [1], in experiment [2], in experiment [3], in experiment [4], in experiment [5] and in experiment [6] was above 30 µM in each case. The AC50 in experiment [7], in experiment [8], in [9], in [10], in experiment [11] and in [12] was above 30 µM in each case. The AC50 in experiment [13], in experiment [14], in [15], in [16], in [17] and in [18] was above 30 µM each time. Also, the values for the AC50 in experiment [19], in experiment [20] and in experiment [21] were above 30 µM, above 30 µM and 1.9 µM, respectively.

As a reminder, the AC50 is the midpoint of the concentration-response curve, whichever way the signal moves.
